Like-named read-outs stand apart in the source and are kept apart here.
Tests used:
CDK4/cyclin D1 = CDK4/cyclin D1 (Homo sapiens (Human), UniProt P11802); assay: CDK4/cyclin D1 enzymatic activity assay (TR-FRET, phosphorylation of pRb at Ser780); format: biochemical; conditions: 0.3 nM CDK4/cyclin D1, 150 nM biotin-pRb (773-924), 3 μM ATP, 60 min at 22° C.; read-out: Biochemical CDK4 enzyme IC50
Experimental: CDK4/Cyclin D1 Enzymatic Activity Assay
An assay for monitoring CDK4/cyclin D1-catalyzed phosphorylation of pRb at the Ser780 site was performed using TR-FRET in a 384-well format, and was used for IC50 determination and kinetic analysis. […] 3 μM ATP was added last to initiate the reaction. The reaction was quenched with 10 μL of 240 mM EDTA-Na (pH 8.0) after 60 min incubation at 22° C.
Human CDK4/cyclin D1 was expressed in Sf21 cells via baculovirus infection.

CDK1/cyclin B = CDK1/cyclin B (Homo sapiens (Human), UniProt P06493); assay: CDK1/cyclin B enzymatic activity assay (IMAP-FP); format: biochemical; conditions: 100 nM Tamra Histone-H1 peptide, 20 μM ATP, 120 min at room temperature, read-out: Biochemical CDK1 enzyme IC50
Sequence of CDK1/cyclin B (P06493 whole entry, species assumed): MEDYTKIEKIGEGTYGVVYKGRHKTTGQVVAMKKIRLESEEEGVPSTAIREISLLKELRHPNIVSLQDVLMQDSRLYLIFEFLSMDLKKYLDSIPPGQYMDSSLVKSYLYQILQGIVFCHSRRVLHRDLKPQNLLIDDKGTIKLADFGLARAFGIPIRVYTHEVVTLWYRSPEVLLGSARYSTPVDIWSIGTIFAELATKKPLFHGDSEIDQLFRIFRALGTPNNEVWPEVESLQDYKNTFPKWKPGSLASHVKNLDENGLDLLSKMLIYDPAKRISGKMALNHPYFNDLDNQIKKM
Sequence of CDK1/cyclin B (P14635 whole entry partner, species assumed): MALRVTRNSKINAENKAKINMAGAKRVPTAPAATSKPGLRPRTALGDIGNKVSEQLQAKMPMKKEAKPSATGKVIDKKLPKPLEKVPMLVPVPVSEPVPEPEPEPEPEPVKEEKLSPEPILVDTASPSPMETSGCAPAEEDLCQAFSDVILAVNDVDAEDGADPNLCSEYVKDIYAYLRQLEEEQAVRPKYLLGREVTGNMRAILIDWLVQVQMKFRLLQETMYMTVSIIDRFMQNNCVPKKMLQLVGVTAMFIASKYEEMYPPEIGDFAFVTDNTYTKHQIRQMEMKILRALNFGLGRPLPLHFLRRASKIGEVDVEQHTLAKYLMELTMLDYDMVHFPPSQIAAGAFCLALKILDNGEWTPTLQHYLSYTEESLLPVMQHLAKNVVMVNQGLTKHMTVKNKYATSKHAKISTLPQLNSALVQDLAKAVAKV
Excerpt: CDK1/Cyclin B Enzymatic Activity Assay
A 384-well microtiter IMAP-FP™ (Molecular Devices Trade Mark Technology) endpoint assay was used for CDK1/cyclin B kinase activity measurements. The same assay was used for IC50 determination of small molecule inhibitors.

[1] = tested on: phosphorylation of pRb at the Ser780 site in JeKo-1 mantle cell lymphoma cells; assay: CDK4 cellular assay: ELISA of pRb phosphorylation at Ser780 in JeKo-1 cells; format: cell-based; conditions: Homo sapiens
Excerpt: Cell-based assay measuring phosphorylation levels of pRb at the Ser780 site using an enzyme-linked immunosorbent assay (ELISA) method (Table 6). JeKo-1, a mantle-cell lymphoma cell line, was selected for use in this assay due to its known translocation and subsequent overexpression of cyclin D1. [Ref: Amin, H. M.; McDonnell, T. J.; Medeiros, L. J.; Rassidakis, G. Z.; Leventaki, V.; O'Connor, S. L.; Keating, M. J.; Lai, R. Characterization of 4 mantle cell lymphoma cell lines—Establishment of an in vitro study model. Arch. Pathol. Lab.
Cells were allowed to adhere overnight. […] 10 μL of the dilution were then transferred to the cell culture plate, resulting in a final concentration range of 10 μM to 2 nM. The incubation was carried out at 37° C. with 5% CO2. All compounds were tested in triplicates at each concentration. […] The plates were placed at 4° C. with vigorous shaking for 5 min to lyse the cells. The resulting lysates contained approximately 1 μg/μL of protein.
Plates were incubated overnight at 4° C. with rocking. […] After shaking for 10 minutes, the Superblock solution was replaced with fresh Superblock and plates were incubated on a shaker for an additional 50 min. After blocking, 30 μL of JeKo-1 cell lysate, containing approximately 10 μg total protein, were added to wells in triplicate. […] For all incubation steps, plates were covered with Uniseal plate sealers. […] Next, 50 μL of a 1:2500 dilution of donkey-anti-rabbit HRP (Promega catalog no. W401B) in PBS/10% Superblock were added, and plates were incubated for 30 min at room temperature on a shaker. Plates were again washed as described above. […] After incubation, 50 μL 2 M sulfuric acid were added to plates to top the reaction, and absorbance was determined on a SpectraMax (Molecular Devices, Sunnydale, Calif.) within 15 minutes at 450 nm. All washes were performed using a Bio-Tek plate washer.
The Total Rb ELISA kit (Invitrogen catalog no. KH00011) was used to determine the levels of total pRb. This kit uses wells precoated with a proprietary total pRb antibody for capture. All reagents listed, with the exception of cell lysate, were included in the kit. The nature of the antibodies used for capture and detection was labeled as proprietary and not disclosed. 10 μg of cell lysate was loaded into the wells and volume adjusted to 50 μL with standard dilution buffer. Plates were sealed with film included in the kit and incubated for 2 h at room temperature on a shaker. Plates are then manually washed three times with 250 μL wash buffer. 50 μL of proprietary primary antibody (pre-conjugated to biotin) was added to wells and incubated for 1 h at room temperature on a shaker. Then plates were again washed as noted above. The secondary antibody (HRP pre-conjugated to Streptavidin) was diluted 1:100 in Streptavidin-HRP diluent buffer and 50 μL was added to each well. Plates were then incubated for 30 min. Afterwards, plates were washed four times with buffer as outlined above. Finally, 50 μL stabilized Chromogen was added per well and plates were incubated for 15 min, at which point 50 μL of stop solution was added. Plates were then read on a Spectramax at 450 nm.
The total pRb levels were then used to adjust the p-pRb % inhibition values to account for any loss of signal due to the absence of the pRb protein itself, and the IC50 values obtained from the adjusted % inhibitions represent normalized cellular p-pRb IC50.

[2] = JeKo-1, JeKo-1 cells, p-pRb % inhibition adjusted with total pRb levels, read-out: Normalized cellular ppRb inhibition IC50
[3] = JeKo-1, JeKo-1 cells, p-pRb Ser780 ELISA, non-normalized, read-out: Cellular ppRb inhibition IC50
[4] = JeKo-1 cells, p-pRb % inhibition adjusted with total pRb levels, read-out: Normalized cellular ppRb inhibition IC50
[5] = JeKo-1 cells, p-pRb Ser780 ELISA, non-normalized, read-out: Cellular ppRb inhibition IC50

Sequence of CDK4/cyclin D1 (P11802 whole entry): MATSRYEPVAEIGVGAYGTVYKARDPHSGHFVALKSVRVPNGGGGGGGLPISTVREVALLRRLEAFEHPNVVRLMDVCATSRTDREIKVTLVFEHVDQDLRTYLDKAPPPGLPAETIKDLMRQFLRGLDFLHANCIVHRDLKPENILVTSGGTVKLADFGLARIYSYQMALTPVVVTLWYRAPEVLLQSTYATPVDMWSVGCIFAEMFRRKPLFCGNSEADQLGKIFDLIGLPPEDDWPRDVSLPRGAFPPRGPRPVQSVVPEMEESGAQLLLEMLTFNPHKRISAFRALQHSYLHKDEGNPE
Sequence of CDK4/cyclin D1 (P24385 whole entry partner): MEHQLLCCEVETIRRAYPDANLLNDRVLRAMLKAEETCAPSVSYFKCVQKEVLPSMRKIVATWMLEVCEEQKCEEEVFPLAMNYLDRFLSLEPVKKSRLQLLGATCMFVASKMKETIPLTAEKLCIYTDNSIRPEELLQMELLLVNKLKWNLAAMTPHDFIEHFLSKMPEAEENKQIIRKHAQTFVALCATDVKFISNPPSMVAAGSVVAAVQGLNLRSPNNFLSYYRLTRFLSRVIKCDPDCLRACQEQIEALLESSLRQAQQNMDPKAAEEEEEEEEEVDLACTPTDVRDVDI

| SMILES | IC50 (CDK4/cyclin D1) | IC50 (CDK1/cyclin B; […] CDK1/cyclin B) | IC50 [1, 2] | IC50 [1, 3] | IC50 [1, 4] | IC50 [1, 5] | IC50 (CDK1/cyclin B; 0.25 nM CDK1/cyclin B) | IC50 ([1]; JeKo-1, read-out: Cellular ppRb inhibition IC50) | IC50 ([1]; JeKo-1, read-out: Normalized cellular ppRb inhibition IC50) |
| --- | --- | --- | --- | --- | --- | --- | --- | --- | --- |
| CN(C)C(=O)c1cc2cnc(Nc3ccc(C(=O)N4CC5CNC(C5)C4)cn3)nc2n1C1CCCC1 (racemic) [Example 9, 7-Cyclopentyl-2-[5-(3,6-diaza-bicyclo[3.2.1]octane-3-carbonyl)-pyridin-2-ylamino]-7H-pyrrolo[2,3-d]pyrimidine-6-carboxylic acid dimethylamide] | < 4 nM | 7100 nM | 120 nM | 55 nM |  |  |  |  |  |
| CN(C)C(=O)c1cc2cnc(Nc3ccc(C(=O)N4CC5CC5(N)C4)cn3)nc2n1C1CCCC1 (racemic) [Example 14, 2-[5-(1-Amino-3-aza-bicyclo[3.1.0]hexane-3-carbonyl)-pyridin-2-ylamino]-7-cyclopentyl-7H-pyrrolo[2,3-d]pyrimidine-6-carboxylic acid dimethylamide] | 19 nM | > 15000 nM | 371 nM | 133 nM |  |  |  |  |  |
| CN(C)C(=O)c1cc2cnc(Nc3ccc(C(=O)N4CCC5CCC(C4)N5)cn3)nc2n1C1CCCC1 (racemic) [Example 69, 7-Cyclopentyl-2-[5-(3,9-diaza-bicyclo[4.2.1]nonane-3-carbonyl)-pyridin-2-ylamino]-7H-pyrrolo[2,3-d]pyrimidine-6-carboxylic acid dimethylamide] | 5 to 18 nM |  |  |  | 48 nM | 24 nM |  |  |  |
| CN(C)C(=O)c1cc2cnc(Nc3ccc(N4CC5CNCC5C4=O)cn3)nc2n1C1CCCC1 (racemic) [Example 84, 7-cyclopentyl-N,N-dimethyl-2-(5-cis-1-oxohexahydropyrrolo[3,4-c]pyrrol-2(1H)-yl)pyridin-2-ylamino)-7H-pyrrolo[2,3-d]pyrimidine-6-carboxamide] | < 5 nM |  | 10 to 28 nM | 7 to 17 nM |  |  | 18000 nM |  |  |
| CN(C)C(=O)c1cc2cnc(Nc3ccc(N4CC5CNCC5CC4=O)cn3)nc2n1C1CCCCCC1 (racemic) [Example 87, 7-cycloheptyl-N,N-dimethyl-2-(5-(cis-6-oxotetrahydro-1H-pyrrolo[3,4-c]pyridin-5(6H,7H,7aH)-yl)pyridin-2-ylamino)-7H-pyrrolo[2,3-d]pyrimidine-6-carboxamide] | < 5 nM | 4140 nM |  |  |  |  |  | 5 to 8 nM | 6 to 15 nM |
| CN(C)C(=O)c1cc2cnc(Nc3ccc(N4CC5CNCC5CC4=O)cn3)nc2n1C1CCCC1 (racemic) [Example 90, 7-cyclopentyl-N,N-dimethyl-2-(5-(cis-6-oxotetrahydro-1H-pyrrolo[3,4-c]pyridin-5(6H,7H,7aH)-yl)pyridin-2-ylamino)-7H-pyrrolo[2,3-d]pyrimidine-6-carboxamide] | 5 nM | > 15000 nM | 14 to 56 nM | 9 to 34 nM |  |  |  |  |  |
| CN(C)C(=O)c1cc2cnc(Nc3ccc(C(=O)N4CC5C[C@]5(N)C4)cn3)nc2n1C1CCCC1 (single isomer, unassigned) [Example 16] | 15 nM |  | 233 nM | 92 nM |  |  | > 15000 nM |  |  |
| CN(C)C(=O)c1cc2cnc(Nc3ccc(C(=O)N4C[C@@H]5C[C@]5(N)C4)cn3)nc2n1C1CCCC1 (stereo in doubt) [Example 15, 2-[5-((S)-1-Amino-3-aza-bicyclo[3.1.0]hexane-3-carbonyl)-pyridin-2-ylamino]-7-cyclopentyl-7H-pyrrolo[2,3-d]pyrimidine-6-carboxylic acid dimethylamide] | 18 nM | > 15000 nM | 264 nM | 43 nM |  |  |  |  |  |
| CN(C)C(=O)c1cc2cnc(Nc3ccc(C(=O)N4CC5CCCC(C4)N5)cn3)nc2n1C1CCCC1 [Example 52, 7-Cyclopentyl-2-[5-(3,9-diaza-bicyclo[3.3.1]nonane-3-carbonyl)-pyridin-2-ylamino]-7H-pyrrolo[2,3-d]pyrimidine-6-carboxylic acid dimethylamide] | 27 nM |  |  |  | 45 to 53 nM | 21 to 47 nM |  |  |  |
| CN(C)C(=O)c1cc2cnc(Nc3ccc(C(=O)N4CC5CCC(C4)N5)cn3)nc2n1C1CCC1 [Example 55, 7-Cyclobutyl-2-[5-(3,8-diaza-bicyclo[3.2.1]octane-3-carbonyl)-pyridin-2-ylamino]-7H-pyrrolo[2,3-d]pyrimidine-6-carboxylic acid dimethylamide] |  |  |  |  | 35 to 164 nM | 31 to 112 nM |  |  |  |
| CN(C)C(=O)c1cc2cnc(Nc3ccc(C(=O)N4CC5CCC(C4)N5)cn3)nc2n1C1CCN(C2CC2)CC1 [Example 56, 7-(1-cyclopropyl-piperidin-4-yl)-2-[5-(3,8-diaza-bicyclo[3.2.1]octane-3-carbonyl)-pyridin-2-ylamino]-7H-pyrrolo[2,3-d]pyrimidine-6-carboxylic acid dimethylamide] |  |  | 470 nM | 395 nM |  |  |  |  |  |
| CN(C)C(=O)c1cc2cnc(Nc3ccc(C(=O)N4CC[C@H]5CC[C@@H](C4)N5)cn3)nc2n1C1CCCC1 [Example 71, 7-Cyclopentyl-2-[5-((1S,6R)-3,9-diaza-bicyclo[4.2.1]nonane-3-carbonyl)-pyridin-2-ylamino]-7H-pyrrolo[2,3-d]pyrimidine-6-carboxylic acid dimethylamide] | 5 to 6 nM |  |  |  | 56 nM | 31 nM |  |  |  |
| CN(C)C(=O)c1cc2cnc(Nc3ccc(C(=O)N4CC[C@@H]5CC[C@H](C4)N5)cn3)nc2n1C1CCCC1 [Example 72, 7-cyclopentyl-2-[5-((1R,6S)-3,9-diaza-bicyclo[4.2.1]nonane-3-carbonyl)-pyridin-2-ylamino]-7H-pyrrolo[2,3-d]pyrimidine-6-carboxylic acid dimethylamide] | 13 nM |  |  |  | 112 nM | 48 nM |  |  |  |
| CN(C)C(=O)c1cc2cnc(Nc3ccc(N4CCC5(CCCN5)C4=O)cn3)nc2n1C1CCCC1 (stereo not shown) [Example 113, 7-Cyclopentyl-2-[5-(6-oxo-1,7-diaza-spiro[4,4]non-7-yl)-pyridin-2-ylamino]-7H-pyrrolo[2,3-d]pyrimidin-6-carboxylic acid dimethylamide] | 17 to 21 nM |  | 204 to 245 nM | 177 to 205 nM |  |  |  |  |  |
| CN(C)C(=O)c1cc2cnc(Nc3ccc(N4CC5CCC(CC4=O)N5)cn3)nc2n1-c1ccc(C(C)(C)C#N)cc1 (stereo not shown) [Example 127, 7-(4-(2-cyanopropan-2-yl)phenyl)-N,N-dimethyl-2-(5-(4-oxo-3,9-diazabicyclo[4.2.1]nonan-3-yl)pyridin-2-ylamino)-7H-pyrrolo[2,3-d]pyrimidine-6-carboxamide] |  |  |  |  | 247 to 1520 nM | 119 to 917 nM |  |  |  |

Source: patent publication US8957074B2 (Novartis AG, priority 2010, dated 2015)
